# Experimental data taken from US10406135B2, “Compositions containing isosorbide monoester and alcohols that contain at least one aromatic group” (Clariant International Ltd., priority 2011, dated 2019).
# Where two headings read alike, the source gives them in different places.
# Key:
# [1] = tested on: bacteria, fungi and yeasts; details: general statement, no test described, cited from earlier work
# [2] = tested on: bacteria, fungi and yeasts; assay: Antimicrobial efficacy, summary statements over the organisms tested; assay type: cell-based
# Procedure: Below, the antimicrobial efficacy of a composition according to the invention consisting of 50% by weight of isosorbide caprylate 1 and 50% by weight of phenoxyethanol against bacteria, fungi and yeasts is examined (hereinbelow, the composition is referred to as “composition A”). For the tests with bacteria, composition A was diluted with butyl polyglycol and then, at 50° C., added to liquid CASO agar (casein-peptone agar) buffered to pH 7 (+/−0.2) in various concentrations (hereinbelow referred to as compositions B1, B2, etc.). For the tests with fungi and yeasts, composition A was diluted with butyl polyglycol and then added to liquid Sabouraud 4% dextrose agar buffered to pH 5.6 (+/−0.2) in various concentrations (hereinbelow referred to as compositions PH1, PH2, etc.). […]
# (§1) The minimum inhibitory concentrations for the pure substances isosorbide caprylate 1 and phenoxyethanol were determined analogously. […]
# (§2) Analogously to the determination of the antimicrobial activity according to the above example B), the antimicrobial activity of a mixture comprising, firstly, 89.6% by weight of isosorbide dicaprylate and 9.4% by weight of isosorbide monocaprylate (remainder: 1% by weight) (hereinbelow referred to as “isosorbide dicaprylate”) and, secondly, pure isosorbide was determined in further test series.
# [3] = tested on: Aspergillus brasiliensis; assay: Antimicrobial efficacy, minimum inhibitory concentration (MIC) in agar; assay type: cell-based; details: Sabouraud 4% dextrose agar pH 5.6, read-out: MIC of isosorbide
# Procedure: (§3) Below, the antimicrobial efficacy of a composition according to the invention consisting of 50% by weight of isosorbide caprylate 1 and 50% by weight of phenoxyethanol against bacteria, fungi and yeasts is examined (hereinbelow, the composition is referred to as “composition A”). For the tests with bacteria, composition A was diluted with butyl polyglycol and then, at 50° C., added to liquid CASO agar (casein-peptone agar) buffered to pH 7 (+/−0.2) in various concentrations (hereinbelow referred to as compositions B1, B2, etc.). For the tests with fungi and yeasts, composition A was diluted with butyl polyglycol and then added to liquid Sabouraud 4% dextrose agar buffered to pH 5.6 (+/−0.2) in various concentrations (hereinbelow referred to as compositions PH1, PH2, etc.). The compositions B1, B2, etc. and PH1, PH2 etc. were each poured into Petri dishes and each inoculated with identical amounts of bacteria, fungi and yeasts. The minimum inhibitory concentration (MIC) is the concentration at which inhibition of the growth of the bacteria, fungi and yeasts in the compositions B1, B2, etc. and PH1, PH2, etc. occurs.
# as §1
# (§4) The values determined for the minimum inhibitory concentrations “QA” and “QB”, stated in Table 1 below, have already been corrected for the dilution effect of the butyl polyglycol. […]
# as §2
# [4] = tested on: Citrobacter freundii; assay: as above; assay type: cell-based; details: CASO agar pH 7, read-out: MIC of isosorbide
# Procedure: as §3, §1, §4, §2
# [5] = tested on: Fusarium solani; assay: as above; assay type: cell-based; details: Sabouraud 4% dextrose agar pH 5.6, read-out: MIC of isosorbide
# Procedure: as §3, §1, §4, §2
# [6] = tested on: Escherichia coli; assay: as above; assay type: cell-based; details: CASO agar pH 7, read-out: MIC of isosorbide
# Procedure: as §3, §1, §4, §2
# [7] = tested on: Pseudomonas aeruginosa; assay: as above; assay type: cell-based; details: CASO agar pH 7, read-out: MIC of isosorbide
# Procedure: as §3, §1, §4, §2
# [8] = tested on: Klebsiella pneumoniae; assay: as above; assay type: cell-based; details: CASO agar pH 7, read-out: MIC of isosorbide
# Procedure: as §3, §1, §4, §2
# [9] = tested on: Aspergillus terreus; assay: as above; assay type: cell-based; details: Sabouraud 4% dextrose agar pH 5.6, read-out: MIC of isosorbide
# Procedure: as §3, §1, §4, §2
# [10] = tested on: Proteus vulgaris; assay: as above; assay type: cell-based; details: CASO agar pH 7, read-out: MIC of isosorbide
# Procedure: as §3, §1, §4, §2
# [11] = tested on: Candida albicans; assay: as above; assay type: cell-based; details: Sabouraud 4% dextrose agar pH 5.6, read-out: MIC of isosorbide
# Procedure: as §3, §1, §4, §2
# [12] = tested on: Enterobacter aerogenes; assay: as above; assay type: cell-based; details: Klebsiella aerogenes, CASO agar pH 7, read-out: MIC of isosorbide
# Procedure: as §3, §1, §4, §2
# [13] = tested on: Penicillium minioluteum; assay: as above; assay type: cell-based; details: Talaromyces minioluteus, Sabouraud 4% dextrose agar pH 5.6, read-out: MIC of isosorbide
# Procedure: as §3, §1, §4, §2
# [14] = tested on: Penicillium funicolosium; assay: as above; assay type: cell-based; details: Sabouraud 4% dextrose agar pH 5.6, read-out: MIC of isosorbide
# Procedure: as §3, §1, §4, §2
# [15] = tested on: Staphylococcus aureus; assay: as above; assay type: cell-based; details: CASO agar pH 7, read-out: MIC of isosorbide
# Procedure: (§5) Below, the antimicrobial efficacy of a composition according to the invention consisting of 50% by weight of isosorbide caprylate 1 and 50% by weight of phenoxyethanol against bacteria, fungi and yeasts is examined (hereinbelow, the composition is referred to as “composition A”). For the tests with bacteria, composition A was diluted with butyl polyglycol and then, at 50° C., added to liquid CASO agar (casein-peptone agar) buffered to pH 7 (+/−0.2) in various concentrations (hereinbelow referred to as compositions B1, B2, etc.). […]
# (§6) The minimum inhibitory concentrations for the pure substances isosorbide caprylate 1 and phenoxyethanol were determined analogously.
# (§7) The values determined for the minimum inhibitory concentrations “MIC mixture”, stated in Table 1 below, are based on the concentrations of composition A.
# as §4, §2
# [16] = tested on: Pseudomonas oleovorans; assay: as above; assay type: cell-based; details: Ectopseudomonas oleovorans, CASO agar pH 7, read-out: MIC of isosorbide
# Procedure: as §5, §6, §7, §4, §2
compound,measurement,setting,value
CCCCCCCC(=O)O [caprylic acid],antimicrobial activity (in words),[1]; at a pH of 6 or above,no antimicrobial activity
same,antimicrobial activity (in words),[1],antimicrobially effective
O[C@@H]1CO[C@H]2[C@@H]1OC[C@@H]2O [isosorbide],antimicrobial activity (in words),[2]; summary of the MICs of Table 2,neither isosorbide nor isosorbide dicaprylate are antimicrobially active
same,MIC,[3],10000 µg/mL
same,MIC,[4],10000 µg/mL
same,MIC,[5],10000 µg/mL
same,MIC,[6],10000 µg/mL
same,MIC,[7],10000 µg/mL
same,MIC,[8],10000 µg/mL
same,MIC,[9],10000 µg/mL
same,MIC,[10],10000 µg/mL
same,MIC,[11],10000 µg/mL
same,MIC,[12],10000 µg/mL
same,MIC,[13],10000 µg/mL
same,MIC,[14],10000 µg/mL
same,MIC,[15],10000 µg/mL
same,MIC,[16],10000 µg/mL
isosorbide monocaprylate,antimicrobial activity (in words),"[2]; concluded from Tables 1 and 2, not tested as pure compound",significant antimicrobial activity
